Measured values as given in the supplement of paper PMC10307832.

Columns and labels:
Test in all cases: relative viability (nuclei count vs DMSO), 5 days (fraction); higher = more cells survive
NCI-H2170 = system: NCI-H2170
Method in brief: (§1)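 A single step with final 0.05% Triton X-100, 1% formaldehyde and 1 ug/ml Hoechst fixed the cells and stained nuclei 5 days after treatment. Lung cancer cell lines in 1536-well plates had been treated by pin tool the day after seeding with one drug alone or a fixed anchor-drug dose plus five library-drug doses (not always all listed) in √10 steps, and nuclei were counted on 4× images. Relative viability is the ratio of nuclei in treated wells to nuclei in vehicle wells, taken as the median of duplicate plates.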

NCI-H1793 = system: NCI-H1793
Method in brief: as §1

NCI-H1734 = system: NCI-H1734
Method in brief: as §1

NCI-H2009 = system: NCI-H2009
Method in brief: as §1

EKVX = system: EKVX
Method in brief: as §1

NCI-H1395 = system: NCI-H1395
Method in brief: as §1

HARA = system: HARA
Method in brief: as §1

NCI-H2347 = system: NCI-H2347
Method in brief: as §1

NCI-H647 = system: NCI-H647
Method in brief: as §1

NCI-H2228 = system: NCI-H2228
Method in brief: as §1

HOP-62 = system: HOP-62
Method in brief: as §1

UMC-11 = system: UMC-11
Method in brief: as §1

NCI-H1355 = system: NCI-H1355
Method in brief: as §1

COR-L 105 = system: COR-L 105
Method in brief: as §1

PC-14 = system: PC-14
Method in brief: as §1

NCI-H1993 = system: NCI-H1993
Method in brief: as §1

COR-L23 = system: COR-L23
Method in brief: as §1

NCI-H358 = system: NCI-H358
Method in brief: as §1

NCI-H838 = system: NCI-H838
Method in brief: as §1

SK-MES-1 = system: SK-MES-1
Method in brief: as §1

NCI-H1755 = system: NCI-H1755
Method in brief: as §1

HCC-15 = system: HCC-15
Method in brief: as §1

CC1(C)CCC(c2ccc(Cl)cc2)=C(CN2CCN(c3ccc(C(=O)NS(=O)(=O)c4ccc(N[C@H](CCN5CCOCC5)CSc5ccccc5)c(S(=O)(=O)C(F)(F)F)c4)cc3)CC2)C1 [Navitoclax] + CS(=O)(=O)N1CCN(Cc2cc3nc(-c4cccc5[nH]ncc45)nc(N4CCOCC4)c3s2)CC1 [Pictilisib] (partner 1 µM)
relative viability (NCI-H2170; first compound 0.005 µM): 0.306
relative viability (NCI-H2170; first compound 0.01581 µM): 0.327
relative viability (NCI-H2170; first compound 0.05 µM): 0.334
relative viability (NCI-H2170; first compound 0.1581 µM): 0.243
relative viability (NCI-H2170; first compound 0.5 µM): 0.203
relative viability (NCI-H1793; first compound 0.005 µM): 0.317
relative viability (NCI-H1793; first compound 0.01581 µM): 0.505
relative viability (NCI-H1793; first compound 0.05 µM): 0.301
relative viability (NCI-H1793; first compound 0.1581 µM): 0.226
relative viability (NCI-H1793; first compound 0.5 µM): 0.242
relative viability (NCI-H1734; first compound 0.005 µM): 0.455
relative viability (NCI-H1734; first compound 0.01581 µM): 0.481
relative viability (NCI-H1734; first compound 0.1581 µM): 0.49
relative viability (NCI-H1734; first compound 0.5 µM): 0.465
relative viability (NCI-H2009; first compound 0.005 µM): 0.771
relative viability (NCI-H2009; first compound 0.01581 µM): 1.09
relative viability (NCI-H2009; first compound 0.05 µM): 0.961
relative viability (NCI-H2009; first compound 0.1581 µM): 0.898
relative viability (NCI-H2009; first compound 0.5 µM): 0.979
relative viability (EKVX; first compound 0.005 µM): 0.487
relative viability (EKVX; first compound 0.01581 µM): 0.611
relative viability (EKVX; first compound 0.05 µM): 0.427
relative viability (EKVX; first compound 0.1581 µM): 0.41
relative viability (EKVX; first compound 0.5 µM): 0.452
relative viability (NCI-H1395; first compound 0.005 µM): 0.692
relative viability (NCI-H1395; first compound 0.01581 µM): 0.645
relative viability (NCI-H1395; first compound 0.05 µM): 0.563
relative viability (NCI-H1395; first compound 0.1581 µM): 0.818
relative viability (NCI-H1395; first compound 0.5 µM): 0.67
relative viability (HARA; first compound 0.005 µM): 0.389
relative viability (HARA; first compound 0.01581 µM): 0.372
relative viability (HARA; first compound 0.05 µM): 0.384
relative viability (HARA; first compound 0.1581 µM): 0.425
relative viability (HARA; first compound 0.5 µM): 0.381
relative viability (NCI-H2347; first compound 0.005 µM): 0.63
relative viability (NCI-H2347; first compound 0.01581 µM): 0.702
relative viability (NCI-H2347; first compound 0.05 µM): 0.649
relative viability (NCI-H2347; first compound 0.1581 µM): 0.395
relative viability (NCI-H2347; first compound 0.5 µM): 0.734
relative viability (NCI-H647; first compound 0.005 µM): 0.539
relative viability (NCI-H647; first compound 0.01581 µM): 0.396
relative viability (NCI-H647; first compound 0.05 µM): 0.385
relative viability (NCI-H647; first compound 0.1581 µM): 0.422
relative viability (NCI-H647; first compound 0.5 µM): 0.453
relative viability (NCI-H2228; first compound 0.005 µM): 0.431
relative viability (NCI-H2228; first compound 0.01581 µM): 0.526
relative viability (NCI-H2228; first compound 0.05 µM): 0.367
relative viability (NCI-H2228; first compound 0.1581 µM): 0.366
relative viability (NCI-H2228; first compound 0.5 µM): 0.304
relative viability (HOP-62; first compound 0.005 µM): 0.803
relative viability (HOP-62; first compound 0.01581 µM): 0.921
relative viability (HOP-62; first compound 0.05 µM): 0.5
relative viability (HOP-62; first compound 0.1581 µM): 0.769
relative viability (HOP-62; first compound 0.5 µM): 1.17
relative viability (UMC-11; first compound 0.005 µM): 0.743
relative viability (UMC-11; first compound 0.01581 µM): 0.809
relative viability (UMC-11; first compound 0.1581 µM): 0.741
relative viability (UMC-11; first compound 0.5 µM): 0.516
relative viability (NCI-H1355; first compound 0.005 µM): 0.461
relative viability (NCI-H1355; first compound 0.01581 µM): 0.42
relative viability (NCI-H1355; first compound 0.05 µM): 0.416
relative viability (NCI-H1355; first compound 0.1581 µM): 0.497
relative viability (NCI-H1355; first compound 0.5 µM): 0.427
relative viability (COR-L 105; first compound 0.005 µM): 0.352
relative viability (COR-L 105; first compound 0.01581 µM): 0.45
relative viability (COR-L 105; first compound 0.05 µM): 0.41
relative viability (COR-L 105; first compound 0.1581 µM): 0.368
relative viability (COR-L 105; first compound 0.5 µM): 0.308
relative viability (PC-14; first compound 0.005 µM): 0.648
relative viability (PC-14; first compound 0.01581 µM): 0.956
relative viability (PC-14; first compound 0.05 µM): 0.746
relative viability (PC-14; first compound 0.1581 µM): 0.748
relative viability (PC-14; first compound 0.5 µM): 0.68
relative viability (NCI-H1993; first compound 0.005 µM): 0.808
relative viability (NCI-H1993; first compound 0.01581 µM): 0.853
relative viability (NCI-H1993; first compound 0.05 µM): 0.803
relative viability (NCI-H1993; first compound 0.1581 µM): 0.792
relative viability (NCI-H1993; first compound 0.5 µM): 0.925
relative viability (COR-L23; first compound 0.005 µM): 0.733
relative viability (COR-L23; first compound 0.01581 µM): 0.919
relative viability (COR-L23; first compound 0.05 µM): 0.818
relative viability (COR-L23; first compound 0.1581 µM): 0.763
relative viability (COR-L23; first compound 0.5 µM): 0.932
relative viability (NCI-H358; first compound 0.005 µM): 0.347
relative viability (NCI-H358; first compound 0.01581 µM): 0.352
relative viability (NCI-H358; first compound 0.05 µM): 0.307
relative viability (NCI-H358; first compound 0.1581 µM): 0.379
relative viability (NCI-H358; first compound 0.5 µM): 0.336
relative viability (NCI-H838; first compound 0.005 µM): 0.435
relative viability (NCI-H838; first compound 0.01581 µM): 0.571
relative viability (NCI-H838; first compound 0.05 µM): 0.541
relative viability (NCI-H838; first compound 0.1581 µM): 0.494
relative viability (NCI-H838; first compound 0.5 µM): 0.486
relative viability (SK-MES-1; first compound 0.005 µM): 0.458
relative viability (SK-MES-1; first compound 0.01581 µM): 0.48
relative viability (SK-MES-1; first compound 0.05 µM): 0.355
relative viability (SK-MES-1; first compound 0.1581 µM): 0.321
relative viability (SK-MES-1; first compound 0.5 µM): 0.334
relative viability (NCI-H1755; first compound 0.005 µM): 0.425
relative viability (NCI-H1755; first compound 0.01581 µM): 0.434
relative viability (NCI-H1755; first compound 0.05 µM): 0.252
relative viability (NCI-H1755; first compound 0.1581 µM): 0.406
relative viability (NCI-H1755; first compound 0.5 µM): 0.352
relative viability (HCC-15; first compound 0.005 µM): 0.733
relative viability (HCC-15; first compound 0.01581 µM): 0.769
relative viability (HCC-15; first compound 0.05 µM): 0.614
relative viability (HCC-15; first compound 0.1581 µM): 0.726
relative viability (HCC-15; first compound 0.5 µM): 0.667
